Series [1] has as its system Mus musculus. The series can be described thus: Antidepressant activity in Mus musculus albino (mouse) assessed as reversal of reserpine-induced ptosis at 75 umole/kg, ip after 3 hr by chi-square test relative to control. The format is functional.
Series [2] concerns Mus musculus. The series can be described thus: Toxicity in Mus musculus albino (mouse) assessed as effect on gross behavior at 75 umole/kg, ip. The series is classed as organism-based. The settings on record: in vivo.
For series [3], the system named is Mus musculus. The series is described as follows: Anorexigenic activity in Mus musculus albino (mouse) assessed as reduction of milk intake at 75 umole/kg, ip relative to control. The format is functional. The arrangement: scale not given: the % may be the effect or the level left.

As for `COC(=O)[C@H]1[C@H]2C[C@@H]3c4[nH]c5cc(OC)ccc5c4CCN3C[C@H]2C[C@@H](OC(=O)c2cc(OC)c(OC)c(OC)c2)[C@@H]1OC` [RESERPINE], the Activity with Mus musculus [1] was 100%.
Turning to `CN(CCC(Oc1ccc(C(F)(F)F)cc1)c1ccccc1)C(=S)Nc1ccccc1` (configuration not stated), the Activity with Mus musculus [1] was 100%; in the series on Mus musculus [2], “Non-toxic”.
Turning to `CN(CCC(Oc1ccc(C(F)(F)F)cc1)c1ccccc1)C(=S)NCc1ccccc1` (configuration not stated), the Activity is 100% with Mus musculus [1] and “Non-toxic” with Mus musculus [2].
`CN(CCC(Oc1ccc(C(F)(F)F)cc1)c1ccccc1)C(=S)NC(C)(C)C` (configuration not stated): the Activity in the series on Mus musculus [1] is 100%; in the series with Mus musculus [2], “Non-toxic”.
As to `COc1ccc(NC(=S)N(C)CCC(Oc2ccc(C(F)(F)F)cc2)c2ccccc2)cc1` (configuration not stated), the Activity in the series on Mus musculus [1] was 100%; with Mus musculus [2], “Non-toxic”.
The matching figures for `Cc1ccc(NC(=S)N(C)CCC(Oc2ccc(C(F)(F)F)cc2)c2ccccc2)cc1` (configuration not stated): 80% and “Non-toxic”.
For `CN(CCC(Oc1ccc(C(F)(F)F)cc1)c1ccccc1)C(=S)NCCc1ccccc1` (configuration not stated), the Activity with Mus musculus [1] is given as 40%; in the series with Mus musculus [2] it was “Non-toxic”.
Regarding `CNCCC(Oc1ccc(C(F)(F)F)cc1)c1ccccc1` (configuration not stated) [FLUOXETINE], the Activity with Mus musculus [1] was determined as 0%; in the series with Mus musculus [3], 78.49%.
In the case of `CN(CCC(Oc1ccc(C(F)(F)F)cc1)c1ccccc1)C(=S)NC1CCCCC1` (configuration not stated), the results for the Activity with Mus musculus [1] and in the series with Mus musculus [2] were 100% and “Non-toxic”, respectively.
As to `CN(CCC(Oc1ccc(C(F)(F)F)cc1)c1ccccc1)C(=O)NC1CCCCC1` (configuration not stated), the figures for the Activity with Mus musculus [1] and in the series with Mus musculus [2] were 80% and “Non-toxic”, respectively.
With `CC(C)NC(=S)N(C)CCC(Oc1ccc(C(F)(F)F)cc1)c1ccccc1` (configuration not stated), the Activity with Mus musculus [1] is 100%; in the series with Mus musculus [2] it was “Non-toxic”.
Consider `CN(C[C@@H]1CCc2ccccc2[C@@H]1Oc1ccc(C(F)(F)F)cc1)C(=O)NCCc1ccccc1`, for which the Activity in the series on Mus musculus [1] is on record as 100%; in the series with Mus musculus [2], “Non-toxic”.
In the case of `CN(CCC(Oc1ccc(C(F)(F)F)cc1)c1ccccc1)C(=O)NCCc1ccccc1` (configuration not stated), the Activity is listed as 100% in the series on Mus musculus [1] and “Non-toxic” with Mus musculus [2].
The matching figures for `CN(CCC(Oc1ccc(C(F)(F)F)cc1)c1ccccc1)C(=S)NC(=O)c1ccccc1` (configuration not stated): 100% and “Non-toxic”.
In the case of `CC1CCC(NC(=S)N(C)CCC(Oc2ccc(C(F)(F)F)cc2)c2ccccc2)CC1` (configuration not stated), the Activity was 60% in the series on Mus musculus [1] and “Non-toxic” in the series on Mus musculus [2].
The matching figures for `CN(C[C@@H]1CCc2ccccc2[C@@H]1Oc1ccc(C(F)(F)F)cc1)C(=O)NC1CCCCC1`: 100% and “Non-toxic”.
In the case of `CN(C[C@@H]1CCc2ccccc2[C@@H]1Oc1ccc(C(F)(F)F)cc1)C(=S)NCCc1ccccc1`, the Activity is reported as 100% in the series with Mus musculus [1] and “Non-toxic” in the series on Mus musculus [2].
Turning to `CC1CCC(NC(=O)N(C)C[C@@H]2CCc3ccccc3[C@@H]2Oc2ccc(C(F)(F)F)cc2)CC1` (some centres not stated), the Activity with Mus musculus [1] was 80%; in the series on Mus musculus [2] it was “Non-toxic”.
Take `COc1cc(NC(=S)N(C)CCC(Oc2ccc(C(F)(F)F)cc2)c2ccccc2)cc(OC)c1OC` (configuration not stated): the Activity is 100% with Mus musculus [1] and “Non-toxic” with Mus musculus [2].

These data come from ChEMBL document CHEMBL3046231 (Med Chem Res, 2008).
